The values that follow are results of earlier work, collected in the PKSmart pharmacokinetics tables (Seal et al. 2025).

Where a SMILES comes first, the peptide text is derived from it. [ ]: non-standard residue; d: D form. The star is where a group is joined. ξ: configuration not given here. ξNMe2Val = CC(C)C(C(=O)*)N(C)C; NMeV = CN[CH](C(=O)O)C(C)C; NHtBu = CC(C)(C)N*

The data set is described as follows: Lombardo, Berellini, Obach 2018, Drug Metab Dispos 46:1466, doi 10.1124/dmd.118.082966. Particulars: human; for MRT / Vd / clearance / half-life: in vivo, iv; for fraction unbound: plasma.

Turning to `CC(C)(N)CC(=O)NC1CCc2ccccc2N(Cc2ccc(-c3ccccc3-c3nnn[nH]3)cc2)C1=O` (stereo unspecified), the MRT is 1.1 h, the Vd was 0.2 L/kg, the clearance was 0.183 L/h/kg and the half-life was 3.8 h. Besides, the free fraction (fraction unbound) is 0.06.
Take `NCCCNc1ccc2c(CNCCO)nn3c4c(O)ccc(O)c4c(=O)c1c23`: the MRT is 11 h, the distribution volume (Vd) was 12 L/kg, the clearance is 1.08 L/h/kg and the half-life is 32 h.
`C[C@H]1COc2c(N3CCN(C)CC3)c(F)c(N)c3c(=O)c(C(=O)O)cn1c23`: the MRT was 18.3 h, the Vd was 2.42 L/kg, the clearance was 0.132 L/h/kg and the half-life was 20.1 h. Also, the fraction unbound is 0.82.
Regarding `c1ccc(C2(c3ccccc3)CC2C2=NCCN2)cc1` (stereo unspecified), the MRT was 7.8 h, the distribution volume (Vd) is 4.1 L/kg, the clearance was 0.516 L/h/kg and the half-life was 7.3 h.
In the case of `CCCCCCCCc1ccc(CCC(N)(CO)CO)cc1`, the MRT was 189 h, the Vd was 17.3 L/kg, the clearance was 0.0918 L/h/kg and the half-life was 144 h. Besides, the fraction unbound is 0.002.
For `O=C(O)C1N=C(c2ccccc2)c2cc(Cl)ccc2NC1=O` (stereo unspecified), the MRT is 3 h, the Vd is 0.2 L/kg, the clearance was 0.066 L/h/kg and the half-life is 2.4 h.
Consider `C#Cc1cccc(Nc2ncnc3cc(OC)c(OCCCCCCC(O)=NO)cc23)c1`, for which the MRT is 0.78 h, the Vd is 0.56 L/kg, the clearance was 0.719 L/h/kg and the half-life was 5.01 h.
On to `Cc1ccccc1-c1cc(N2CCN(C)CC2)ncc1N(C)C(=O)C(C)(C)c1cc(C(F)(F)F)cc(C(F)(F)F)c1`, for which the MRT was 32.6 h, the Vd is 5.54 L/kg, the clearance is 0.17 L/h/kg and the half-life is 34.3 h. Further, the fraction unbound is 0.003.
Consider `CC(C)NCC(O)c1ccc(O)c(O)c1` (stereo unspecified), for which the MRT is 0.43 h, the Vd is 1.5 L/kg, the clearance is 3.36 L/h/kg and the half-life is 0.41 h. The fraction unbound is 0.71.
Take `C[C@@H](O)C1C(=O)N2C(C(=O)O)=C(S[C@H]3CC(C(=O)N4CC[C@H](NC(=O)CNC(=N)N)C4)N(C)C3)[C@H](C)[C@H]12` (stereo partly specified): the MRT is 2 h, the Vd is 0.23 L/kg, the clearance was 0.114 L/h/kg and the half-life was 1.7 h. Moreover, the fraction unbound was 0.91.
Turning to `CN1CCN(c2ncc(-c3cc(Cl)cc(Cl)c3Cl)c(N)n2)CC1`, the MRT is 12.3 h, the Vd was 15.3 L/kg, the clearance was 1.25 L/h/kg and the half-life is 11 h.
For the compound `C=CCNc1c(O)cc2c(O)c1C=C(C)C[C@H](OC)[C@H](O)[C@@H](C)/C=C(\C)[C@H](OC(N)=O)[C@@H](OC)C=CC=C(C)C(=O)N2`, the MRT was 3.27 h, the Vd is 2 L/kg, the clearance was 0.611 L/h/kg and the half-life is 3 h.
On to `O=C(NC[C@H](O)CO)c1ccncc1Nc1ccc(I)cc1F`, for which the MRT was 3.55 h, the Vd was 1.8 L/kg, the clearance was 0.523 L/h/kg and the half-life is 4.59 h.
`C[C@](N)(Cc1ccc(O)c(O)c1)C(=O)O`: the MRT was 3.3 h, the Vd is 0.69 L/kg, the clearance was 0.21 L/h/kg and the half-life is 5.9 h.
On to `CCn1cc(C(=O)O)c(=O)c2cnc(N3CCNCC3)nc21`, for which the MRT was 5.15 h, the Vd was 0.88 L/kg, the clearance is 0.17 L/h/kg and the half-life is 3.69 h. The fraction unbound was 0.7.
For the compound `NC[C@H]1OB(O)c2c(OCCCO)cccc21`, the mean residence time (MRT) is 9.6 h, the Vd was 2.37 L/kg, the clearance is 0.246 L/h/kg and the half-life was 11.6 h.
For `CCCC=c1ncc(=CC(Cc2cccs2)C(=O)O)n1Cc1ccc(C(=O)O)cc1` (stereo unspecified), the MRT was 1.5 h, the Vd was 0.17 L/kg, the clearance is 0.114 L/h/kg and the half-life was 2.1 h.
As for `COc1cc([C@@H]2c3cc4c(cc3[C@@H](O[C@@H]3O[C@@H]5CO[C@@H](c6cccs6)O[C@H]5[C@H](O)[C@H]3O)[C@H]3COC(=O)C23)OCO4)cc(OC)c1O` (stereo partly specified), the MRT is 37 h, the Vd is 0.41 L/kg, the clearance was 0.0114 L/h/kg and the half-life was 16 h. Besides, the fraction unbound is 0.0044.
In the case of `CC(C)(C)OC(=O)NC1CCCCC/C=C\[C@@H]2C[C@@]2(C(=O)NS(=O)(=O)C2CC2)NC(=O)C2C[C@@H](OC(=O)N3Cc4cccc(F)c4C3)CN2C1=O` (stereo partly specified), the MRT was 0.32 h, the Vd was 0.22 L/kg, the clearance was 0.692 L/h/kg and the half-life is 1.81 h. Besides, the fraction unbound was 0.02.
As for `CCN1CCC[C@H]1CNC(=O)c1c(O)c(Cl)cc(Cl)c1OC`, the MRT was 15.3 h, the Vd was 1.1 L/kg, the clearance was 0.072 L/h/kg and the half-life was 14 h. In addition, the fraction unbound was 0.06.
On to `CC(C)(C)c1cnc(CSc2cnc(NC(=O)C3CCNCC3)s2)o1`, for which the MRT was 7.13 h, the Vd is 5.14 L/kg, the clearance is 0.78 L/h/kg and the half-life was 9.3 h.
Consider `Cc1cc(C)c2c(c1)[C@@H](N(Cc1cc(C(F)(F)F)cc(C(F)(F)F)c1)c1nnn(C)n1)CCCN2CC1CCC(C(=O)O)CC1` (stereo partly specified), for which the MRT is 36.1 h, the Vd is 1.82 L/kg, the clearance was 0.0504 L/h/kg and the half-life is 51.9 h. Also, the fraction unbound was 0.001.
Regarding `O=c1ccc2ccc(OCCCCN3CCN(c4cccc5sccc45)CC3)cc2[nH]1`, the MRT was 71 h, the Vd was 1.46 L/kg, the clearance is 0.0204 L/h/kg and the half-life is 54.4 h. Further, the fraction unbound was 0.002.
Consider `Nc1nc2[nH]cc(CCc3ccc(C(=O)NC(CCC(=O)O)C(=O)O)cc3)c2c(=O)[nH]1` (stereo unspecified), for which the mean residence time MRT was 1.92 h, the volume of distribution (Vd) is 0.15 L/kg, the clearance was 0.078 L/h/kg and the half-life was 1.85 h.
Take `CN/C(=C\[N+](=O)[O-])NCCSCc1csc(CN(C)C)n1`: the MRT is 1.7 h, the Vd is 1 L/kg, the clearance is 0.588 L/h/kg and the half-life was 1.5 h.
On to `CC(C)C(NC(=O)C(C(C)C)N(C)C)C(=O)N(C)C(C(=O)N1CCCC1C(=O)N1CCCC1C(=O)NC(C)(C)C)C(C)C` (stereo unspecified) (ξNMe2Val-V[NMeV]PP-NHtBu; configuration not given here), for which the MRT was 0.58 h, the distribution volume (Vd) was 0.33 L/kg, the clearance is 0.576 L/h/kg and the half-life is 0.57 h.
As for `OCc1ncc2n1-c1ccc(Cl)cc1C(c1ccccc1F)=NC2`, the mean residence time (MRT) was 1.3 h, the Vd is 0.77 L/kg, the clearance is 0.583 L/h/kg and the half-life is 1.1 h. Also, the fraction unbound is 0.1.
For the compound `COc1ccnc(C[S+](O)c2nc3cc(-n4cccc4)ccc3[n-]2)c1C` (stereo unspecified), the MRT is 4.32 h, the Vd was 0.19 L/kg, the clearance was 0.0438 L/h/kg and the half-life is 3.59 h.
For the compound `C#Cc1cccc(Nc2ncnc3cc(OCCOC)c(OCCOC)cc23)c1`, the MRT was 7.55 h, the Vd is 0.77 L/kg, the clearance is 0.101 L/h/kg and the half-life was 6.5 h. For the same compound, the free fraction (fraction unbound) was 0.07.
Regarding `O=C(O)CO`, the MRT was 2.75 h, the Vd is 0.67 L/kg, the clearance is 0.243 L/h/kg and the half-life is 2.1 h. For the same compound, the fraction unbound is 0.84.
With `COC(=O)C1(OC(=O)c2cncn2[C@H](C)c2ccccc2)CC1`, the clearance is 3 L/h/kg and the half-life was 0.24 h.
As to `CCN1C[C@H]2CN(C)C[C@@H](C1)C2OC(=O)c1ccc(Cl)cc1` (stereo partly specified), the MRT was 8.8 h, the Vd was 9 L/kg, the clearance was 1.02 L/h/kg and the half-life was 8.6 h.
